Test system: adults with plaque psoriasis
Assay: Long-term open-label extension study (PSOARING 3): Physician Global Assessment (PGA), treatment episodes, treatment success, remittive effect
Assay type: in vivo, human
Method: This extension study consisted of up to 40 weeks of treatment and a 4 week, safety follow up period.
At the completion of the Week 12 visit of the DB, pivotal Phase 3 study, eligibility of the subjects opting to enroll in this extension study was confirmed. Study visits during the treatment period for all subjects occurred every 4 weeks (±3 days). A phone call was performed at Week 2 (Day 15). Unscheduled visits may have occurred, as needed. Subjects who withdrew from this study before Week 40 returned to the study center for an Early Termination visit. The total duration of this extension study participation was 44 weeks. Subjects in this study were treated as follows based on their PGA score from the Week 12 visit in the DB, pivotal Phase 3 study (Study DMVT 505 3001 or Study DMVT 505 3002).
The PGA was used to assess the primary efficacy endpoint in this study. The PGA is a clinical tool for assessing the current state/severity of a subject's psoriasis at a given time point. It is a static, 5 point, morphological assessment of overall disease severity, as determined by the Investigator, using the clinical characteristics of erythema, scaling, and plaque thickness/elevation as guidelines; higher PGA scores represent more severe disease (0=clear, 1=almost clear, 2=mild, 3=moderate, and 4=severe). The BSA affected was not considered in scoring of the PGA. Variations of the PGA are frequently used in clinical studies because it is a simple assessment, similar to those used in clinical practice. The PGA was performed first, prior to the % BSA, PASI, and LTS assessments.
Time to event parameters, such as the time from treatment success to subsequent worsening (PGA≥2) or duration of treatment episode, were summarized by the Kaplan Meier product limit method using OC.

[1] = Baseline PGA = 2, Tapinarof (Pivotal) group
[2] = Baseline PGA = 2, Vehicle (Pivotal) group
[3] = Baseline PGA = 3, Tapinarof (Pivotal) group

Question: What does the source list for CC(C)c1c(O)cc(/C=C/c2ccccc2)cc1O [Tapinarof, 3,5-Dihydroxy-4-isopropyl-trans-stilbene]?
Answer: Duration of 1st Success, Mean (SD) [1]: 81.3 (71.03) days; Duration of 1st Success, Median [1]: 57.0 days; Duration of 2nd Episode, Mean (SD) [1]: 78.2 (54.89) days; Duration of 2nd Episode, Median [1]: 84.5 days; Duration of 2nd Success, Mean (SD) [1]: 27.3 (30.06) days; Duration of 2nd Success, Median [1]: 25.0 days; Duration of 3rd Episode, Mean (SD) [1]: 1.0 (NE) days; Duration of 3rd Episode, Median [1]: 1.0 days; Duration of Last Episode, Mean (SD) [1]: 175.4 (98.91) days; Duration of Last Episode, Median [1]: 197.0 days; Duration of Last Success, Mean (SD) [1]: 76.1 (72.82) days; Duration of Last Success, Median [1]: 56.0 days; Total Duration of Treatment Episodes, Mean (SD) [1]: 190.1 (90.58) days; Total Duration of Treatment Episodes, Median [1]: 223.0 days; Total Duration of Treatment Success, Mean (SD) [1]: 84.6 (71.17) days; Total Duration of Treatment Success, Median [1]: 78.0 days; Average Duration of Episodes, Mean (SD) [2]: 169.8 (89.68) days; Average Duration of Episodes, Median [2]: 194.0 days; Average Duration of Treatment Success, Mean (SD) [2]: 94.6 (65.57) days; Average Duration of Treatment Success, Median [2]: 87.0 days; Duration of 1st Episode, Mean (SD) [2]: 173.2 (86.28) days; Duration of 1st Episode, Median [2]: 194.0 days; Duration of 1st Success, Mean (SD) [2]: 110.8 (72.69) days; Duration of 1st Success, Median [2]: 115.5 days; Duration of 2nd Episode, Mean (SD) [2]: 46.0 (42.39) days; Duration of 2nd Episode, Median [2]: 27.0 days; Duration of 2nd Success, Mean (SD) [2]: 34.7 (51.14) days; Duration of 2nd Success, Median [2]: 27.5 days; Duration of 3rd Episode, Mean (SD) [2]: 42.5 (19.09) days; Duration of 3rd Episode, Median [2]: 42.5 days; Duration of 3rd Success, Mean (SD) [2]: 29.0 (NE) days; Duration of 3rd Success, Median [2]: 29.0 days; Duration of Last Episode, Mean (SD) [2]: 166.2 (95.09) days; Duration of Last Episode, Median [2]: 194.0 days; Duration of Last Success, Mean (SD) [2]: 79.8 (77.74) days; Duration of Last Success, Median [2]: 44.5 days; Total Duration of Treatment Episodes, Mean (SD) [2]: 184.6 (78.19) days; Total Duration of Treatment Episodes, Median [2]: 196.5 days; Total Duration of Treatment Success, Mean (SD) [2]: 127.9 (73.01) days; Total Duration of Treatment Success, Median [2]: 136.5 days; Average Duration of Episodes, Mean (SD) (Baseline PGA = 3, Overall): 178.0 (94.87) days; Average Duration of Episodes, Median (Baseline PGA = 3, Overall): 197.0 days; Average Duration of Treatment Success, Mean (SD) (Baseline PGA = 3, Overall): 66.4 (56.88) days; Average Duration of Treatment Success, Median (Baseline PGA = 3, Overall): 51.0 days; Duration of 1st Episode, Median (Baseline PGA = 3, Overall): 197.0 days; Duration of 1st Success, Mean (SD) (Baseline PGA = 3, Overall): 68.8 (57.40) days; Duration of 1st Success, Median (Baseline PGA = 3, Overall): 56.0 days; Duration of 2nd Episode, Mean (SD) (Baseline PGA = 3, Overall): 58.8 (46.15) days; Duration of 2nd Episode, Median (Baseline PGA = 3, Overall): 55.0 days; Duration of 2nd Success, Mean (SD) (Baseline PGA = 3, Overall): 31.5 (19.15) days; Duration of 2nd Success, Median (Baseline PGA = 3, Overall): 28.5 days; Duration of 3rd Episode, Mean (SD) (Baseline PGA = 3, Overall): 55.2 (27.44) days; Duration of 3rd Episode, Median (Baseline PGA = 3, Overall): 57.0 days; Duration of 3rd Success, Mean (SD) (Baseline PGA = 3, Overall): 28.0 (NE) days; Duration of 3rd Success, Median (Baseline PGA = 3, Overall): 28.0 days; Duration of 4th Episode, Mean (SD) (Baseline PGA = 3, Overall): 1.0 (NE) days; Duration of 4th Episode, Median (Baseline PGA = 3, Overall): 1.0 days; Duration of Last Episode, Mean (SD) (Baseline PGA = 3, Overall): 175.4 (98.29) days; Duration of Last Episode, Median (Baseline PGA = 3, Overall): 197.0 days; Duration of Last Success, Mean (SD) (Baseline PGA = 3, Overall): 64.1 (58.23) days; Duration of Last Success, Median (Baseline PGA = 3, Overall): 51.0 days; Total Duration of Treatment Episodes, Mean (SD) (Baseline PGA = 3, Overall): 187.9 (90.62) days; Total Duration of Treatment Episodes, Median (Baseline PGA = 3, Overall): 198.0 days; Total Duration of Treatment Success, Mean (SD) (Baseline PGA = 3, Overall): 75.5 (57.18) days; Total Duration of Treatment Success, Median (Baseline PGA = 3, Overall): 64.0 days; Average Duration of Episodes, Mean (SD) [3]: 184.7 (96.36) days; Average Duration of Episodes, Median [3]: 198.0 days; Average Duration of Treatment Success, Mean (SD) [3]: 63.9 (54.43) days; Average Duration of Treatment Success, Median [3]: 48.3 days; Duration of 1st Episode, Mean (SD) [3]: 187.1 (95.90) days; Duration of 1st Episode, Median [3]: 198.0 days; Duration of 1st Success, Mean (SD) [3]: 62.6 (55.19) days; Duration of 1st Success, Median [3]: 43.0 days; Duration of 2nd Episode, Mean (SD) [3]: 68.2 (77.66) days; Duration of 2nd Episode, Median [3]: 30.0 days; Duration of 2nd Success, Mean (SD) [3]: 57.0 (NE) days; Duration of 2nd Success, Median [3]: 57.0 days; Duration of Last Episode, Mean (SD) [3]: 182.2 (99.93) days; Duration of Last Episode, Median [3]: 198.0 days; Duration of Last Success, Mean (SD) [3]: 65.2 (54.03) days; Duration of Last Success, Median [3]: 56.0 days; Total Duration of Treatment Episodes, Mean (SD) [3]: 190.8 (95.50) days; Total Duration of Treatment Episodes, Median [3]: 200.0 days

— patent US20220395472A1 (Dermavant Sciences GmbH, priority 2021, published 2022)
